In patent US10329270B2, “Heteroaryl compounds as BTK inhibitors and uses thereof” (Merck Patent GmbH, priority 2013, dated 2019) one finds IC50 data, which are given here for 36 compounds.

The target of one assay is T1, full-length human BTK (Homo sapiens, UniProt Q06187).
T1 construct: 2.5× stocks of full-length human BTK (08-080); purchased CarnaBio USA, Inc., Natick, Mass; 08-080
T1 sequence (Q06187 whole entry): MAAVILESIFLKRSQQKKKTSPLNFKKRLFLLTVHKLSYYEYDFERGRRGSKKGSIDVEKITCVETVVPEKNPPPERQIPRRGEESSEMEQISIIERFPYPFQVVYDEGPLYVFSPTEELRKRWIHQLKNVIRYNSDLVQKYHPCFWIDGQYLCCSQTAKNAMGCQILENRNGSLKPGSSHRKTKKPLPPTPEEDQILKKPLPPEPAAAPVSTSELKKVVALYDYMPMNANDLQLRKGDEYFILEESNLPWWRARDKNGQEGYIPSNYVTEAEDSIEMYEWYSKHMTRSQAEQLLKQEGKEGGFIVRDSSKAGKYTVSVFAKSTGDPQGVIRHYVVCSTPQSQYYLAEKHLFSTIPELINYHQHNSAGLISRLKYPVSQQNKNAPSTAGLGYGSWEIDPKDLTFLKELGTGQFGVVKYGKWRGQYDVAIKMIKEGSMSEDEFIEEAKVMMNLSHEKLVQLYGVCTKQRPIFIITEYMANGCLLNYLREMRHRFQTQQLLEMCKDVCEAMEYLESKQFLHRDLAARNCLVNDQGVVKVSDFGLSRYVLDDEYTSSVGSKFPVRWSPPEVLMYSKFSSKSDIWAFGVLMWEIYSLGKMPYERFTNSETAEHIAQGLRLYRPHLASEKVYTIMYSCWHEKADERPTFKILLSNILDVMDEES
The experiment in a line: Assay A: BTK IC50 Enzyme Assay (microfluidic off-chip mobility shift kinase assay).
Conditions: not given
The assay is classed as biochemical. In a few lines:
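Off-chip microfluidic mobility shift assay with full-length human BTK; phosphorylated and unphosphorylated peptide substrate were separated by charge/mass on a LabChip 3000.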
On to `C=CC(=O)N1CCC(F)(CNc2ncc(C(N)=O)c(Oc3ccc(Oc4ccccc4)cc3)n2)CC1` [Compound 194, 2-(((1-acryloyl-4-fluoropiperidin-4-yl)methyl)amino)-4-(4-phenoxyphenoxy)pyrimidine-5-carboxamide], for which the IC50 (commonly the concentration that inhibits the measured activity by half) was 0.1 to 1 µM.

The assay is the same for the next values; noted with them: full-length human BTK, kinKDR peptide substrate, incubated 90 min at 27 C; read-out: Assay A (Time Dependent BTK Enzyme Assay IC50).
Consider `C=CC(=O)N1CCN(c2nc(N(C)c3cccc(C)c3)ccc2C(N)=O)CC1` [Compound 158, 2-(4-Acryloyl-piperazin-1-yl)-6-(methyl-m-tolyl-amino)-nicotinamide], for which the IC50 was in the range of 0.1 to 1 µM.

Consider `C=CC(=O)Nc1ccc(-c2ccc(C(N)=O)c(Oc3ccc(Oc4ccccc4)cc3)n2)cc1` [Compound 159, 6-(4-acrylamidophenyl)-2-(4-phenoxyphenoxy)nicotinamide], for which the IC50 was over 5 µM.

Turning to `C=CC(=O)NCc1ccc(-c2ccc(C(N)=O)c(Oc3ccc(Oc4ccccc4)cc3)n2)s1` [Compound 160, 6-(5-(acrylamidomethyl)thiophen-2-yl)-2-(4-phenoxyphenoxy)nicotinamide], the IC50 is over 5 µM.

For the compound `C=CC(=O)NCc1ccc(-c2ccc(C(N)=O)c(Oc3ccc(Oc4ccccc4)cc3)n2)o1` [Compound 161, 6-(5-(acrylamidomethyl)furan-2-yl)-2-(4-phenoxyphenoxy)nicotinamide], the IC50 is over 5 µM.

For `CN(C)C/C=C/C(=O)N[C@H]1C[C@@H](Nc2ncc(C(N)=O)c(N)n2)C1` [Compound 162, 4-Amino-2-[3-(4-dimethylamino-but-2-enoylamino)-cyclobutylamino]-pyrimidine-5-carboxylic acid amide], the IC50 was over 5 µM.

Take `C=CC(=O)N[C@H]1CCN(c2nc(Cl)ccc2C(N)=O)C1` [Compound 163, 2-((S)-3-Acryloylamino-pyrrolidin-1-yl)-6-chloro-nicotinamide]: the IC50 was over 5 µM.

For the compound `C=CC(=O)N[C@H]1CCN(c2ccc(C(N)=O)c(NC3CCOCC3)n2)C1` [Compound 165, 6-((S)-3-Acryloylamino-pyrrolidin-1-yl)-2-(tetrahydro-pyran-4-ylamino)-nicotinamide], the 50% inhibitory concentration (IC50) was over 5 µM.

For `C=CC(=O)N[C@H]1CCN(c2ccc(C(N)=O)c(NCCN3CCOCC3)n2)C1` [Compound 166, 6-((S)-3-Acryloylamino-pyrrolidin-1-yl)-2-(2-morpholin-4-yl-ethylamino)-nicotinamide], the IC50 is over 5 µM.

On to `C/C=C/C(=O)N1CCC(c2cnc(Oc3ccc(Oc4cccc(F)c4)cc3)c(C(N)=O)c2)C1` (stereo not drawn) [Compound 167, 5-[1-((E)-But-2-enoyl)-pyrrolidin-3-yl]-2-[4-(3-fluoro-phenoxy)-phenoxy]-nicotinamide], for which the IC50 lay within 1 to 5 µM.

For the compound `C=CC(=O)N1CC=C(c2cncc(C(N)=O)c2Nc2ccc(N3C[C@@H](C)O[C@@H](C)C3)nc2)CC1` [Compound 168, 1′-Acryloyl-4-[6-(cis-2,6-dimethyl-morpholin-4-yl)-pyridin-3-ylamino]-1′,2′,3′,6′-tetrahydro-[3,4′]bipyridinyl-5-carboxylic acid amide], the IC50 is 1 to 5 µM.

Turning to `C=CC(=O)N1CC=C(c2cncc(C(N)=O)c2Nc2ccc(C(=O)N3CCCCC3)cc2)CC1` [Compound 169, 1′-Acryloyl-4-[4-(piperidine-1-carbonyl)-phenylamino]-1′,2′,3′,6′-tetrahydro-[3,4′]bipyridinyl-5-carboxylic acid amide], the half-inhibitory concentration (IC50) was 1 to 5 µM.

Take `C=CC(=O)N[C@H]1CCN(c2ncc(C(N)=O)cc2-c2ccc(Oc3ccccc3)cc2)C1` [Compound 170, 6-((S)-3-Acryloylamino-pyrrolidin-1-yl)-5-(4-phenoxy-phenyl)-nicotinamide]: the IC50 is over 5 µM.

Regarding `C=CC(=O)N[C@H]1CCN(c2ncnc(C(N)=O)c2Cl)C1` [Compound 172, 6-((S)-3-Acryloylamino-pyrrolidin-1-yl)-5-chloro-pyrimidine-4-carboxylic acid amide], the IC50 was over 5 µM.

Consider `C=CC(=O)N1CCC(Nc2ncc(C(N)=O)c(Oc3ccc(Oc4ccccc4)cc3)n2)CC12CCC2` (stereo not drawn) [Compound 175, 2-(5-Acryloyl-5-aza-spiro[3.5]non-8-ylamino)-4-(4-phenoxy-phenoxy)-pyrimidine-5-carboxylic acid amide], for which the 50% inhibitory concentration (IC50) fell in the range of 0.1 to 1 µM.

As to `C=CC(=O)N[C@H]1C[C@H](Nc2ncc(C(N)=O)c(Oc3ccc(Oc4ccccc4)cc3)n2)C1` [Compound 176, 2-(((1r,3r)-3-acrylamidocyclobutyl)amino)-4-(4-phenoxyphenoxy)pyrimidine-5-carboxamide], the IC50 lay within 0.1 to 1 µM.

For `C=CC(=O)N[C@H]1CCN(c2ncc(C#N)c(Nc3ccc(C(=O)NC(C)(C)C)cc3)n2)C1` [Compound 178], the concentration for half-maximal inhibition (IC50) was under 0.1 µM.

As to `C=CC(=O)N[C@H]1CCN(c2nc(Nc3ccc(N4CC(C)OC(C)C4)c(F)c3)c(C(N)=O)cc2F)C1` (stereo partly drawn) [Compound 181, 6-((S)-3-Acryloylamino-pyrrolidin-1-yl)-2-[4-(2,6-dimethyl-morpholin-4-yl)-3-fluoro-phenylamino]-5-fluoro-nicotinamide], the concentration for half-maximal inhibition (IC50) was under 0.1 µM.

As for `C=CC(=O)N1CCC2(CC(Nc3ncc(C(N)=O)c(Oc4ccc(Oc5ccccc5)cc4)n3)C2)C1` (stereo not drawn) [Compound 182, 2-((6-acryloyl-6-azaspiro[3.4]octan-2-yl)amino)-4-(4-phenoxyphenoxy)pyrimidine-5-carboxamide], the IC50 lay within 1 to 5 µM.

`C=CC(=O)N1CC2(CC(Nc3ncc(C(N)=O)c(Oc4ccc(Oc5ccccc5)cc4)n3)C2)C1` [Compound 183, 2-((2-acryloyl-2-azaspiro[3.3]heptan-6-yl)amino)-4-(4-phenoxyphenoxy)pyrimidine-5-carboxamide]: the IC50 was in the range of 0.1 to 1 µM.

For the compound `C=CC(=O)N1CCC(c2cc(Oc3ccc(NC(=O)c4ccccc4)cc3)c(C(N)=O)cn2)C1` (stereo not drawn) [Compound 184, 6-(1-Acryloylpyrrolidin-3-yl)-4-(4-benzamidophenoxy)nicotinamide], the concentration for half-maximal inhibition (IC50) was in the range of 1 to 5 µM.

`C=CC(=O)N1CCC(c2ccc(C(N)=O)c(Oc3ccc(Oc4cccc(C#N)c4)cc3)n2)C1` (stereo not drawn) [Compound 185, 6-(1-Acryloylpyrrolidin-3-yl)-2-(4-(3-cyanophenoxy)phenoxy)nicotinamide]: the IC50 was under 0.1 µM.

Turning to `C=CC(=O)N[C@H]1CCN(c2nc(Nc3ccc(N4CCC(F)(F)CC4)cc3)c(F)cc2C(N)=O)C1` [Compound 186, 2-((S)-3-Acryloylamino-pyrrolidin-1-yl)-6-[4-(4,4-difluoro-piperidin-1-yl)-phenylamino]-5-fluoro-nicotinamide formic acid], the IC50 was in the range of 0.1 to 1 µM.

Turning to `C=CC(=O)N1CC[C@@H](N(C)c2ccc(C(N)=O)c(Oc3ccc(Oc4ccccc4)cc3)n2)C1` [Compound 187, 6-[((R)-1-Acryloyl-pyrrolidin-3-yl)-methyl-amino]-2-(4-phenoxy-phenoxy)-nicotinamide], the half-maximal inhibitory concentration (IC50) was 0.1 to 1 µM.

On to `N#C/C(=C\C1CC1)C(=O)N1C[C@@H]2C[C@H]1CN2c1ccc(C(N)=O)c(Oc2ccc(Oc3ccccc3)cc2)n1` [Compound 190, 6-((1S,4S)-5-((E)-2-cyano-3-cyclopropylacryloyl)-2,5-diazabicyclo[2.2.1]heptan-2-yl)-2-(4-phenoxyphenoxy)nicotinamide], for which the IC50 fell in the range of 1 to 5 µM.

For the compound `C=CC(=O)N[C@H]1CCN(c2ncc(C(N)=O)c(Oc3ccc(Oc4ccccc4)cc3)n2)C1` [Compound 192, (S)-2-(3-acrylamidopyrrolidin-1-yl)-4-(4-phenoxyphenoxy)pyrimidine-5-carboxamide], the IC50 is 0.1 to 1 µM.

In the case of `C=CC(=O)N1C2CC1CN(c1ncc(C(N)=O)c(Oc3ccc(Oc4ccccc4)cc3)n1)C2` [Compound 193, 2-(6-acryloyl-3,6-diazabicyclo[3.1.1]heptan-3-yl)-4-(4-phenoxyphenoxy)pyrimidine-5-carboxamide], the 50% inhibitory concentration (IC50) fell in the range of 0.1 to 1 µM.

For `C=CC(=O)NC1CC2(C1)CC(Nc1ncc(C(N)=O)c(Oc3ccc(Oc4ccccc4)cc3)n1)C2` (stereo not drawn) [Compound 195, 2-((6-acrylamidospiro[3.3]heptan-2-yl)amino)-4-(4-phenoxyphenoxy)pyrimidine-5-carboxamide], the IC50 was in the range of 1 to 5 µM.

Regarding `C=CC(=O)NC1CCN(c2cnc(Oc3ccc(Oc4ccccc4)cc3)c(C(N)=O)c2)C1` (stereo not drawn) [Compound 196, 5-(3-Acryloylamino-pyrrolidin-1-yl)-2-(4-phenoxy-phenoxy)-nicotinamide], the concentration for half-maximal inhibition (IC50) was in the range of 0.1 to 1 µM.

As for `C=CC(=O)NC1CCN(c2cnc(Oc3ccc(Oc4ccccc4)cc3)c(C(N)=O)c2)CC1` [Compound 197], the half-maximal inhibitory concentration (IC50) lay in the range of 0.1 to 1 µM.

As to `C=CC(=O)NC1CCCN(c2cnc(Oc3ccc(Oc4ccccc4)cc3)c(C(N)=O)c2)C1` (stereo not drawn) [Compound 198], the IC50 lay within 0.1 to 1 µM.

On to `C/C=C/C(=O)NC1CCN(c2cnc(Oc3ccc(Oc4ccccc4)cc3)c(C(N)=O)c2)C1` (stereo not drawn) [Compound 199, 5-[3-((E)-But-2-enoylamino)-pyrrolidin-1-yl]-2-(4-phenoxy-phenoxy)-nicotinamide], for which the IC50 is over 5 µM.

Take `C/C=C/C(=O)NC1CCN(c2cnc(Oc3ccc(Oc4ccccc4)cc3)c(C(N)=O)c2)CC1` [Compound 200, 4-((E)-But-2-enoylamino)-6′-(4-phenoxy-phenoxy)-3,4,5,6-tetrahydro-2H-[1,3′]bipyridinyl-5′-carboxylic acid amide]: the IC50 is over 5 µM.

Consider `C=CC(=O)N1CCC(Nc2cnc(Oc3ccc(Oc4ccccc4)cc3)c(C(N)=O)c2)C1` (stereo not drawn) [Compound 201, 5-(1-Acryloyl-pyrrolidin-3-ylamino)-2-(4-phenoxy-phenoxy)-nicotinamide], for which the IC50 is under 0.1 µM.

Consider `C/C=C/C(=O)N1CCC(Nc2cnc(Oc3ccc(Oc4ccccc4)cc3)c(C(N)=O)c2)C1` (stereo not drawn) [Compound 202, 5-[1-((E)-But-2-enoyl)-pyrrolidin-3-ylamino]-2-(4-phenoxy-phenoxy)-nicotinamide], for which the IC50 was 1 to 5 µM.

As for `C=CC(=O)N1C[C@@H]2CCN(c3ncc(C(N)=O)c(Oc4ccc(Oc5ccccc5)cc4)n3)[C@@H]2C1` [Compound 203, 2-((3aS,6aS)-5-acryloylhexahydropyrrolo[3,4-b]pyrrol-1(2H)-yl)-4-(4-phenoxyphenoxy)pyrimidine-5-carboxamide], the half-inhibitory concentration (IC50) was 0.1 to 1 µM.
